In publication PMC5897141 (Journal of neurochemistry, 2018):
“And” between values parts separate entries of the source, which are not always exact repeats. Identical values can stand only once. Like-named read-outs stand apart in the source and are kept apart here.

Legend:
σ1/2 receptors = conditions: cited from earlier work
VAChT [1] = conditions: NHP brain; ref Nishiyama et al. 2014; cited from earlier work
VAChT [2] = type: in vivo, cynomolgus macaques
[3] = HPLC radio-metabolite analysis of arterial plasma; type: in vivo, cynomolgus macaques
VAChT [4] = conditions: ref Tu et al. 2015; cited from earlier work
VAChT [5] = conditions: Lassen plot, baseline vs (-)-vesamicol 0.125 mg/kg; subject A
VAChT [6] = assay: Test-retest reproducibility of BPND; type: in vivo, cynomolgus macaques; conditions: mean ± SD, 3 NHP subjects
[7] = 1TCM, striatum, mean ± SD, n = 3
[8] = 2TCM, cerebellum-hemispheres, mean ± SD, n = 3
[9] = 2TCM, frontal cortex, mean ± SD, n = 3
[10] = 2TCM, hippocampus, mean ± SD, n = 3
[11] = 2TCM, midbrain, mean ± SD, n = 3
[12] = 2TCM, occipital cortex, mean ± SD, n = 3
[13] = 2TCM, striatum, mean ± SD, n = 3
[14] = 2TCM, temporal cortex, mean ± SD, n = 3
[15] = 2TCM, thalamus, mean ± SD, n = 3
[16] = 2TCM, white matter, mean ± SD, n = 3
[17] = LoganAIF, striatum, mean ± SD, n = 3
[18] = MA1, striatum, mean ± SD, n = 3
[19] = RTM, reference cerebellum-hemispheres, striatum, mean ± SD, n = 7
[20] = SRTM, reference cerebellum-hemispheres, striatum, mean ± SD, n = 7
[21] = SRTM, frontal cortex, mean ± SD, n = 7
[22] = SRTM, hippocampus, mean ± SD, n = 7
[23] = SRTM, middle brain, mean ± SD, n = 7
[24] = SRTM, occipital cortex, mean ± SD, n = 7
[25] = SRTM, temporal cortex, mean ± SD, n = 7
[26] = SRTM, thalamus, mean ± SD, n = 7
[27] = SRTM, white matter, mean ± SD, n = 7
[28] = after 20 min p.i., 3 NHP subjects

## Cc1cccc2c1C[C@@H](O)[C@H](N1CCN(c3ccccc3N)CC1)C2 (relative stereo) [[^11C](R,R)HAPT, (R,R)-trans-8-methyl-2-hydroxy-3-[4-[2-aminophenyl]-piperizinyl]tetralin, reference compound]
σ1/2 receptors; ref Shiba et al. 2006, Kawamura et al. 2006
  selectivity for VAChT versus σ1/2 receptors: 10 fold
VAChT [1]
  time-activity curves peak time post injection: ≤ 20 min

## O=C(c1ccc(F)cc1)C1CCN(C2Cc3c(cccc3OCCF)CC2O)CC1 (single isomer, unassigned; (-)) [[^18F]VAT, ((-)-(1-(-8-(2-fluoroethoxy)-3-hydroxy-1,2,3,4-tetrahydronaphthalen-2-yl)piperidin-4-yl)(4-fluorophenyl)-methanone)]
VAChT [2]; [7]
  BPND: 2.69 ± 1.1 (24%)
  DVR: 3.70 ± 1.1 (17%)
  K1: 0.221 ± 0.20 (52%) mL·cm^−3·min^−1
  VT: 22.12 ± 14.1 (37%) mL· cm^−3
  k2: 0.009 ± 0.004 (26%) min^−1
VAChT [2]; 2TCM, cerebellum-hemispheres (reference region), mean ± SD, n = 3
  BPND = DVR-1: 0.00 ± 0.00
VAChT [2]; [8]
  K1: 0.144 ± 0.093 mL·cm^−3·min^−1
  VT: 5.85 ± 5.88 mL· cm^−3
  k2: 0.063 ± 0.010 min⁻¹
  k3: 0.007 ± 0.005 min⁻¹
  k3 / k4: 1.09 ± 0.84
  k4: 0.004 ± 0.003 min⁻¹
VAChT [2]; [9]
  BPND = DVR-1: 0.44 ± 0.10
  K1: 0.103 ± 0.046 mL·cm^−3·min^−1
  VT: 7.13 ± 6.52 mL· cm^−3
  k2: 0.035 ± 0.004 min⁻¹
  k3: 0.010 ± 0.012 min⁻¹
  k3 / k4: 0.94 ± 0.64
  k4: 0.004 ± 0.001 min⁻¹
VAChT [2]; [10]
  BPND = DVR-1: 0.61 ± 0.41
  K1: 0.102 ± 0.059 mL·cm^−3·min^−1
  VT: 7.46 ± 5.56 mL· cm^−3
  k2: 0.035 ± 0.008 min⁻¹
  k3: 0.014 ± 0.010 min⁻¹
  k3 / k4: 1.15 ± 0.62
  k4: 0.014 ± 0.013 min⁻¹
VAChT [2]; [11]
  BPND = DVR-1: 0.18 ± 0.13
  K1: 0.107 ± 0.091 mL·cm^−3·min^−1
  VT: 5.61 ± 4.55 mL· cm^−3
  k2: 0.039 ± 0.009 min⁻¹
  k3: 0.007 ± 0.003 min⁻¹
  k3 / k4: 1.06 ± 0.30
  k4: 0.006 ± 0.001 min⁻¹
VAChT [2]; [12]
  BPND = DVR-1: 0.12 ± 0.075
  K1: 0.101 ± 0.054 mL·cm^−3·min^−1
  VT: 5.51 ± 4.97 mL· cm^−3
  k2: 0.039 ± 0.005 min⁻¹
  k3: 0.004 ± 0.001 min⁻¹
  k3 / k4: 0.82 ± 0.53
  k4: 0.005 ± 0.001 min⁻¹
VAChT [2]; [13]
  DVR: 4.37 ± 0.34 (4%)
  K1: 0.113 ± 0.068 (35%) mL·cm^−3·min^−1 and 0.113 ± 0.068 mL·cm^−3·min^−1
  VT: 22.31 ± 20.7 (54%) mL· cm^−3 and 22.31 ± 20.71 mL· cm^−3
  k2: 0.027 ± 0.005 (11%) min^−1 and 0.027 ± 0.005 min^−1
  k3: 0.019 ± 0.009 (27%) min^−1 and 0.019 ± 0.009 min^−1
  k3 / k4: 3.52 ± 1.14
  k4: 0.005 ± 0.001 (12%) min^−1 and 0.005 ± 0.001 min^−1
VAChT [2]; [14]
  BPND = DVR-1: 0.097 ± 0.076
  K1: 0.086 ± 0.042 mL·cm^−3·min^−1
  VT: 5.23 ± 4.45 mL· cm^−3
  k2: 0.033 ± 0.003 min⁻¹
  k3: 0.003 ± 0.001 min⁻¹
  k3 / k4: 0.74 ± 0.48
  k4: 0.005 ± 0.002 min⁻¹
VAChT [2]; [15]
  BPND = DVR-1: 1.16 ± 0.24
  K1: 0.112 ± 0.061 mL·cm^−3·min^−1
  VT: 10.09 ± 8.25 mL· cm^−3
  k2: 0.030 ± 0.004 min⁻¹
  k3: 0.006 ± 0.002 min⁻¹
  k3 / k4: 1.38 ± 0.26
  k4: 0.004 ± 0.001 min⁻¹
VAChT [2]; 2TCM, vermis, mean ± SD, n = 3
  BPND = DVR-1: 0.22 ± 0.55
  K1: 0.180 ± 0.069 mL·cm^−3·min^−1
  VT: 4.77 ± 2.72 mL· cm^−3
  k2: 0.068 ± 0.005 min⁻¹
  k3: 0.004 ± 0.003 min⁻¹
  k3 / k4: 0.75 ± 0.43
  k4: 0.005 ± 0.001 min⁻¹
VAChT [2]; [16]
  BPND = DVR-1: 0.21 ± 0.13
  K1: 0.065 ± 0.041 mL·cm^−3·min^−1
  VT: 5.66 ± 4.49 mL· cm^−3
  k2: 0.026 ± 0.005 min⁻¹
  k3: 0.006 ± 0.002 min⁻¹
  k3 / k4: 1.01 ± 0.32
  k4: 0.006 ± 0.001 min⁻¹
VAChT [2]; [17]
  BPND: 2.58 ± 0.9 (20%)
  DVR: 3.58 ± 0.9 (15%)
  VT: 16.87 ± 17 (58%) mL· cm^−3
VAChT [2]; LoganREF, reference cerebellum-hemispheres, striatum, mean ± SD, n = 7
  DVR: 3.11 ± 0.43 (5%)
VAChT [2]; LoganREF, frontal cortex, mean ± SD, n = 7
  BPND: 0.29 ± 0.2
VAChT [2]; LoganREF, hippocampus, mean ± SD, n = 7
  BPND: 0.47 ± 0.3
VAChT [2]; LoganREF, middle brain, mean ± SD, n = 7
  BPND: 0.15 ± 0.2
VAChT [2]; LoganREF, occipital cortex, mean ± SD, n = 7
  BPND: 0.13 ± 0.1
VAChT [2]; LoganREF, scan duration for analysis 45 min, mean ± SD, n = 7
  Striatal BPND: 1.60 ± 0.58
VAChT [2]; LoganREF, scan duration for analysis 60 min, mean ± SD, n = 7
  Striatal BPND: 1.69 ± 0.49
VAChT [2]; LoganREF, scan duration for analysis 90 min, mean ± SD, n = 7
  Striatal BPND: 1.86 ± 0.45
VAChT [2]; LoganREF, temporal cortex, mean ± SD, n = 7
  BPND: 0.11 ± 0.1
VAChT [2]; LoganREF, thalamus, mean ± SD, n = 7
  BPND: 0.76 ± 0.3
VAChT [2]; LoganREF, vermis, mean ± SD, n = 7
  BPND: 0.063 ± 0.2
VAChT [2]; LoganREF, white matter, mean ± SD, n = 7
  BPND: 0.17 ± 0.2
VAChT [2]; [18]
  BPND: 2.17 ± 1 (27%)
  DVR: 3.17 ± 1 (18%)
  VT: 21.45 ± 14 (38%) mL· cm^−3
VAChT [2]; [19]
  BPND: 2.11 ± 0.46 (8%)
  DVR: 3.11 ± 0.46 (6%)
  R1 = K1/K1′: ( ^*** R1 = K1/K1′ 0.847 ± 0.08 (4%))
  k2: 0.17 ± 0.16 (36%) min^−1
  k3: 0.05 ± 0.04 (30%) min^−1
  k4: 0.025 ± 0.02 (30%) min^−1
VAChT [2]; [20]
  DVR: 3.15 ± 0.46 (6%)
  k2: 0.032 ± 0.007 (8%) min^−1 and 0.032 ± 0.01 min^−1
VAChT [2]; [21]
  BPND: 0.32 ± 0.2
  R1: 0.82 ± 0.3
  k2: 0.055 ± 0.02 min⁻¹
VAChT [2]; [22]
  BPND: 0.48 ± 0.2
  R1: 0.79 ± 0.1
  k2: 0.053 ± 0.04 min⁻¹
VAChT [2]; [23]
  BPND: 0.17 ± 0.1
  R1: 0.74 ± 0.2
  k2: 0.066 ± 0.1 min⁻¹
VAChT [2]; [24]
  BPND: 0.12 ± 0.1
  R1: 0.81 ± 0.3
  k2: 0.053 ± 0.02 min⁻¹
VAChT [2]; SRTM, scan duration for analysis 45 min, mean ± SD, n = 7
  Striatal BPND: 2.67 ± 1.14
VAChT [2]; SRTM, scan duration for analysis 60 min, mean ± SD, n = 7
  Striatal BPND: 2.14 ± 0.49
VAChT [2]; SRTM, scan duration for analysis 90 min, mean ± SD, n = 7
  Striatal BPND: 2.18 ± 0.37
VAChT [2]; [25]
  BPND: 0.10 ± 0.08
  R1: 0.63 ± 0.2
  k2: 0.074 ± 0.07 min⁻¹
VAChT [2]; [26]
  BPND: 0.79 ± 0.3
  R1: 0.95 ± 0.2
  k2: 0.059 ± 0.02 min⁻¹
VAChT [2]; SRTM, vermis, mean ± SD, n = 7
  BPND: 0.081 ± 0.07
  R1: 1.08 ± 0.4
  k2: 0.064 ± 0.6 min⁻¹
VAChT [2]; [27]
  BPND: 0.17 ± 0.2
  R1: 0.47 ± 0.1
  k2: 0.032 ± 0.01 min⁻¹
VAChT [2]; after tracer injection
  time of peak striatal uptake: about 20 min
[3]; 2 min post-injection
  percentile of unmetabolized parental tracer in plasma: 96% ± 1
[3]; 90 min post-injection
  percentile of unmetabolized parental tracer in plasma: 14% ± 2.7
[3]; [28]
  parent tracer as share of total radioactivity in plasma: over 60%
  polar metabolites as share of total radioactivity in plasma: ~ 40%
[3]; post-injection
  time of peak concentration of parental compound in plasma: less than 1 min
σ1/2 receptors; ref Tu et al. 2015
  selectivity for VAChT versus σ1/2 receptors: over 10,000 fold
VAChT [4]
  Ki: 0.59 nM
VAChT [5]
  VND (non-displaceable distribution volume): ~ 1.27
VAChT [6]; LoganREF, frontal cortex
  retest BPND: 0.29 ± 0.08
  test BPND: 0.29 ± 0.06
VAChT [6]; LoganREF, hippocampus
  retest BPND: 0.47 ± 0.19
  test BPND: 0.46 ± 0.18
VAChT [6]; LoganREF, striatum
  retest BPND: 2.26 ± 0.46
  test BPND: 2.39 ± 0.73
VAChT [6]; LoganREF, thalamus
  retest BPND: 0.74 ± 0.09
  test BPND: 0.70 ± 0.10
VAChT [6]; SRTM, frontal cortex
  retest BPND: 0.30 ± 0.03
  test BPND: 0.32 ± 0.07
VAChT [6]; SRTM, hippocampus
  retest BPND: 0.48 ± 0.14
  test BPND: 0.46 ± 0.16
VAChT [6]; SRTM, striatum
  retest BPND: 2.15 ± 0.38
  test BPND: 2.38 ± 0.69
VAChT [6]; SRTM, thalamus
  retest BPND: 0.77 ± 0.12
  test BPND: 0.77 ± 0.13
